Assay results taken from patent publication US20220033397A1, “PHARMACEUTICAL COMPOUNDS AND THEIR USE AS INHIBITORS OF UBIQUITIN SPECIFIC PROTEASE 19 (USP19)” (ALMAC DISCOVERY LIMITED, priority 2018, published 2022).

Target: T1, Full-length USP19 (Homo sapiens, UniProt O94966)
T1 construct: Full-length USP19 was purchased from Boston Biochem (E-576); purchased Boston Biochem E-576
T1 sequence (O94966 1-1318): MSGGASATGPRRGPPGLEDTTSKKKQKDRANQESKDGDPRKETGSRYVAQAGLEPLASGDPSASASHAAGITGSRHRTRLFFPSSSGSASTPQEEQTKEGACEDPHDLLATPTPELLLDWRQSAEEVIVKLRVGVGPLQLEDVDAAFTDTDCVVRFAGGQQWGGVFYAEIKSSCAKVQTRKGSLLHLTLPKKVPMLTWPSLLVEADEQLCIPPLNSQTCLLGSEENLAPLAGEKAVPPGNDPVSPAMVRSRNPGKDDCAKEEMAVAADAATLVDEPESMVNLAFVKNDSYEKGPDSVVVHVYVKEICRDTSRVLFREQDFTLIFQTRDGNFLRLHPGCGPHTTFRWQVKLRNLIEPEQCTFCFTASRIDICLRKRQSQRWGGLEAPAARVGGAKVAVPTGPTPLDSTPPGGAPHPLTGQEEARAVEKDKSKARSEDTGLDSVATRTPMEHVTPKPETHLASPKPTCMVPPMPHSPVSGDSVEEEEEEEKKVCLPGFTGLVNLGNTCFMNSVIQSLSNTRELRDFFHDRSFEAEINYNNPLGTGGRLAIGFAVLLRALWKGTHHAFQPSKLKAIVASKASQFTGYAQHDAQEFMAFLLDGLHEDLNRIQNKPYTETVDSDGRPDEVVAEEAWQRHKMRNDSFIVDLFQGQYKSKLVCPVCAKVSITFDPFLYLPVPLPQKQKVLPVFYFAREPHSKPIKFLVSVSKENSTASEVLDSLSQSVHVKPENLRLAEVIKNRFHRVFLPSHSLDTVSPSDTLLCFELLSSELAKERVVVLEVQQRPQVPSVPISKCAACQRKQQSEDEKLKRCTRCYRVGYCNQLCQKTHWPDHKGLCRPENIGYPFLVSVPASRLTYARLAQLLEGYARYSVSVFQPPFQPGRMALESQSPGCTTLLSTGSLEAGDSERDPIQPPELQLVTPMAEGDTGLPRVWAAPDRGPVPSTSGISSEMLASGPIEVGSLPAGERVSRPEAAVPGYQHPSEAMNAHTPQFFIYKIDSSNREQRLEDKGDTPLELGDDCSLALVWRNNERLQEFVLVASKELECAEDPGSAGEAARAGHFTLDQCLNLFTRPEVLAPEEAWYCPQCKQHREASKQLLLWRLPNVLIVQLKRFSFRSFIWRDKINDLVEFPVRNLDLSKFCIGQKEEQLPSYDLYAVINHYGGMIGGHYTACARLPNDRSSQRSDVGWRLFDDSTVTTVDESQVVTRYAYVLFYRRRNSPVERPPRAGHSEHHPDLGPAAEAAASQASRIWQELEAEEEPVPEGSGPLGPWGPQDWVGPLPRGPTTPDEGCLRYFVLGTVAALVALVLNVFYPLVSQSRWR
Assay: USP19 fluorescence polarisation (FP) homogeneous assay with Ubiquitin-Lys-TAMRA substrate
Type: biochemical
Conditions: 2.5 nM USP19, 30 min pre-incubation, average of at least two duplicate experiments
Method in brief: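 Full-length USP19 preincubated 30 min at RT with inhibitor (200 μM to 2 μM series, 8–18 points) before adding 500 nM Ubiquitin-Lys-TAMRA substrate.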

Row | IC50 | Compound
1 | < 500 nM | O=C(N1CC[C@@](O)(Cn2cnc(-c3cccc(F)c3)cc2=O)C2(CCCC2)C1)N1CCNC[C@H]1c1cc(F)ccc1F [Example 376, 3-(((S)-7-((R)-2-(2,5-Difluorophenyl)piper-azine-1-carbonyl)-10-hydroxy-7-azaspiro[4.5]decan-10-yl)methyl)-6-(3-fluorophenyl)pyrimi-din-4(3H)-one]
2 | < 500 nM | O=C(N1CC[C@@](O)(Cn2cnc(C3CC3)cc2=O)C2(CCCC2)C1)N1CCNC[C@H]1c1cccc(F)c1 [Example 377, 6-Cyclopropyl-3-(((S)-7-((R)-2-(3-fluoro-phenyl)piperazine-1-carbonyl)-10-hydroxy-7-aza-spiro[4.5]decan-10-yl)methyl)pyrimidin-4(3H)-one]
3 | < 500 nM | O=C(N1CC[C@@](O)(Cn2cnc(C3CC3)cc2=O)C2(CCCC2)C1)N1CCNC[C@H]1c1cc(F)ccc1F [Example 378, 6-Cyclopropyl-3-(((S)-7-((R)-2-(2,5-difluorophenyl)piper-azine-1-carbonyl)-10-hydroxy-7-aza-spiro[4.5]decan-10-yl)methyl)pyrimidin-4(3H)-one]
4 | < 500 nM | O=C(N1CC[C@@](O)(Cn2cnc(-c3ccccc3)cc2=O)C2(CCCC2)C1)N1CCNCC1c1ccc(F)c(F)c1 (stereo partly drawn) [Example 379, 3-(((10S)-7-(2-(3,4-Difluorophenyl)piper-azine-1-carbonyl)-10-hydroxy-7-azaspiro[4.5]decan-10-yl)methyl)-6-phenylpyrimidin-4(3H)-one]
5 | < 500 nM | COc1cccc(F)c1-c1cc(=O)n(C[C@]2(O)CCN(C(=O)N3CCNC[C@H]3c3ccccc3)CC23CCCC3)cn1 [Example 381, 6-(2-Fluoro-6-meth-oxyphenyl)-3-(((S)-10-hydroxy-7-((R)-2-phenylpiperazine-1-carbonyl)-7-aza-spiro[4.5]decan-10-yl)methyl)pyrimidin-4(3H)-one]
6 | < 500 nM | Cc1cccc(F)c1-c1cc(=O)n(C[C@]2(O)CCN(C(=O)N3CCNC[C@H]3c3ccccc3)CC23CCCC3)cn1 [Example 382, 6-(2-Fluoro-6-meth-ylphenyl)-3-(((S)-10-hydroxy-7-((R)-2-phenylpiperazine-1-carbonyl)-7-aza-spiro[4.5]decan-10-yl)methyl)pyrimidin-4(3H)-one]
7 | < 500 nM | COc1c(F)cccc1-c1cc(=O)n(C[C@]2(O)CCN(C(=O)N3CCNC[C@H]3c3ccccc3)CC23CCCC3)cn1 [Example 383, 6-(3-Fluoro-2-methoxyphenyl)-3-(((S)-10-hydroxy-7-((R)-2-phenyl-piperazine-1-carbonyl)-7-aza-spiro[4.5]decan-10-yl)methyl)pyrimidin-4(3H)-one]
8 | < 500 nM | COc1ccc(F)cc1-c1cc(=O)n(C[C@]2(O)CCN(C(=O)N3CCNC[C@H]3c3ccccc3)CC23CCCC3)cn1 [Example 384, 6-(5-Fluoro-2-methoxyphenyl)-3-(((S)-10-hydroxy-7-((R)-2-phenylpipera-zine-1-carbonyl)-7-azaspiro[4.5]decan-10-yl)methyl)pyrimi-din-4(3H)-one]
9 | < 500 nM | O=C(N1CC[C@@](O)(Cn2cnc(-c3cccc(F)c3F)cc2=O)C2(CCCC2)C1)N1CCNC[C@H]1c1ccccc1 [Example 385, 6-(2,3-Difluoro-phenyl)-3-(((S)-10-hydroxy-7-((R)-2-phenylpiperazine-1-carbonyl)-7-aza-spiro[4.5]decan-10-yl)methyl)pyrimidin-4(3H)-one]
10 | < 500 nM | Cc1cccc(-c2cc(=O)n(C[C@]3(O)CCN(C(=O)N4CCNC[C@H]4c4cc(F)ccc4F)CC34CCCC4)cn2)c1 [Example 386, 3-(((S)-7-((R)-2-(2,5-Difluorophenyl)piper-azine-1-carbonyl)-10-hydroxy-7-azaspiro[4.5]decan-10-yl)methyl)-6-(m-tolyl)pyrimidin-4(3H)-one]
11 | < 500 nM | O=C(N1CC[C@@](O)(Cn2cnc(-c3ccccc3F)cc2=O)C2(CCCC2)C1)N1CCNC[C@H]1c1cc(F)ccc1F [Example 387, 3-(((S)-7-((R)-2-(2,5-Difluorophenyl)piper-azine-1-carbonyl)-10-hydroxy-7-azaspiro[4.5]decan-10-yl)methyl)-6-(2-fluorophenyl)pyrimi-din-4(3H)-one]
12 | < 500 nM | COc1ccccc1-c1cc(=O)n(C[C@]2(O)CCN(C(=O)N3CCNC[C@H]3c3cc(F)ccc3F)CC23CCCC3)cn1 [Example 388, 3-(((S)-7-((R)-2-(2,5-Difluoro-phenyl)piperazine-1-carbonyl)-10-hydroxy-7-azaspiro [4.5]decan-10-yl)methyl)-6-(2-meth-oxyphenyl)pyrimi-din-4(3H)-one]
13 | < 500 nM | O=C(N1CC[C@@](O)(Cn2cnc(N3CC4CC4C3)cc2=O)C2(CCCC2)C1)N1CCNC[C@H]1c1cc(F)ccc1F (stereo partly drawn) [Example 389, 6-(3-Aza-bicyclo[3.1.0]hexan-3-yl)-3-(((S)-7-((R)-2-(2,5-difluoro-phenyl)piperazine-1-carbonyl)-10-hydroxy-7-aza-spiro[4.5]decan-10-yl)methyl)pyrimidin-4(3H)-one]
14 | < 500 nM | C[C@@]1(c2ccccc2)CNCCN1C(=O)N1CC[C@@](O)(Cn2cnc(-c3ccccc3)cc2=O)C2(CCCC2)C1 [Example 390, 3-(((S)-10-Hydroxy-7-((R)-2-methyl-2-phenylpiperazine-1-carbonyl)-7-azaspiro[4.5]decan-10-yl)methyl)-6-phenylpyrimidin-4(3H)-one]
15 | < 500 nM | O=C(N1CC[C@@](O)(Cn2ccc(-c3ccccc3F)cc2=O)C2(CCCC2)C1)N1CCNC[C@H]1c1cccc(F)c1 [Example 391, 4-(2-Fluorophenyl)-1-(((S)-7-((R)-2-(3-fluorophenyl)pipera-zine-1-carbonyl)-10-hydroxy-7-azaspiro[4.5]decan-10-yl)methyl)pyri-din-2(1H)-one]
16 | < 500 nM | O=C(N1CC[C@@](O)(Cn2cnc(-c3ccccc3F)cc2=O)C2(CCCC2)C1)N1CCNC[C@H]1c1cc(F)cc(F)c1 [Example 392, 3-(((S)-7-((R)-2-(3,5-Difluoro-phenyl)piper-azine-1-carbonyl)-10-hydroxy-7-azaspiro[4.5]decan-10-yl)methyl)-6-(2-fluorophenyl)pyrimi-din-4(3H)-one]
17 | < 500 nM | O=C(N1CC[C@@](O)(Cn2cnc(-c3ccccc3)cc2=O)C2(CCCC2)C1)N1CCSC[C@H]1c1cc(F)ccc1F [Example 393, 3-(((S)-7-((R)-3-(2,5-Difluorophenyl)thio-morpholine-4-carbo-nyl)-10-hydroxy-7-azaspiro[4.5]decan-10-yl)methyl)-6-phenylpyrimidin-4(3H)-one]
18 | < 500 nM | O=C(N1CC[C@@](O)(Cn2cnc(-c3ccccc3)cc2=O)C2(CCCC2)C1)N1CCS(=O)(=O)C[C@H]1c1cc(F)ccc1F [Example 394, 3-(((S)-7-((R)-3-(2,5-Difluoro-phenyl)-1,1-dioxidothio-morpholine-4-carbonyl)-10-hydroxy-7-aza-spiro[4.5]decan-10-yl)methyl)-6-phenylpyrimidin-4(3H)-one]
19 | < 500 nM | N[C@H]1CCN(C(=O)N2CC[C@@](O)(Cn3cnc(-c4ccccc4)cc3=O)C3(CCCC3)C2)[C@H](c2ccccc2)C1 [Example 396, 3-(((S)-7-((2S,4S)-4-Amino-2-phenyl-piperidine-1-car-bonyl)-10-hydroxy-7-azaspiro[4.5]de-can-10-yl)meth-yl)-6-phenyl-pyrimidin-4(3H)-one]
20 | < 500 nM | N[C@@H]1CCN(C(=O)N2CC[C@@](O)(Cn3cnc(-c4ccccc4)cc3=O)C3(CCCC3)C2)[C@H](c2ccccc2)C1 [Example 397, 3-(((S)-7-((2S,4R)-4-Amino-2-phenyl-piperidine-1-carbo-nyl)-10-hydroxy-7-azaspiro[4.5]decan-10-yl)methyl)-6-phenylpyrimidin-4(3H)-one]
